Laboratory results: US9492428B2, “Compounds, compositions, pharmaceutical compositions, and methods of use” (University of Louisville Research Foundation, Inc., priority 2011, dated 2016)

What was measured:
[1] = tested on: PC-3 cells; assay: Clonogenic assay in PC-3; type: cell-based, human
Protocol: FIG. 7. Clonogenic assays in prostate cancer cells treated with compound I-1. Prostate cancer cells, DU145 (A) or PC3 (B), were plated at very low density in 6-well plates and incubated 18 h at 37° C. Cells were treated by addition of various concentrations of compound I-1 or with an equivalent volume of vehicle (DMSO), or were left untreated. After 10 days of treatment, cells were washed with cold PBS, fixed with paraformaldehyde, and stained with crystal violet solution.
Clonogenic Assay. Cells in fresh complete medium were plated at very low density (3×10^2 per well) into six-well plates for 18 h. After complete adhesion, cells were treated with compound I-1 by adding directly to the medium to give the concentration indicated in the figures. Cells were allowed to grow until visible colonies formed (10 days). Cell colonies were fixed with 4% paraformaldehyde in PBS (phosphate-buffered saline), stained with 0.25% crystal violet in 25% methanol, washed and air-dried.

[2] = tested on: DU145 cells; assay: Immunoblotting of apoptotic markers (cleaved caspase-3, PARP-1) in DU145; type: cell-based, human
Protocol: FIG. 13. Assays to detect apoptosis in DU145 cells. Prostate cancer cells were left untreated (−) or treated with 10 μM compound I-1 or with vehicle (DMSO) for the time indicated in the figure. (A) After treatment, cells were harvest by trypsinization, washed with PBS, and then incubated with FITC-conjugated Annexin V and propidium iodide. Flow cytometric analysis was performed. The histogram for each sample was split into four quadrants to indicate: viable cells (lower left quadrant), apoptotic cells (lower right quadrant), necrotic cells (upper left quadrant), and necrotic/late apoptotic cells (upper right quadrant). (B) After treatment, cells were lysed and total lysates were analyzed for cellular apoptotic markers by immunoblotting using anti-[…] or antibodies specific to the activated form of Caspase-3 (cleaved Caspase-3). Anti-GAPDH-1 antibody was used as loading control. (C) Some cells were harvested by trypsinization, washed with PBS, and total DNA was extracted then analyzed on a 1.8% agarose gel. M indicates DNA size marker (base pairs).
Cell Culture and Treatment. All cells were obtained from ATCC and were grown in a humidified incubator at 37° C. with 5% CO2. DU145 (hormone-refractory prostate cancer) cells were grown in DMEM and PC3 (hormone-refractory prostate cancer) were grown in F-12K medium supplemented with 10% fetal bovine serum (FBS; Life Technologies), 62.5 μg/mL penicillin and 100 μg/mL streptomycin (Hyclone Laboratories, Logan, Utah). Cells (1×10^6) in fresh complete culture medium were plated on 10 cm diameter tissue dishes for 18 h. Cells for biochemical analyses cells were lysed in lysis buffer (150 mM NaCl, 2 mM EDTA, 50 mM Tris-HCl, 0.25% deoxycholic acid, 1% octylphenoxypolyethoxyethanol (IGEPAL CA-630), pH 7.5) containing protease and phosphatase inhibitor cocktails (Calbiochem, Billerica, Mass.) for 10 min at 4° C. and then cleared by centrifugation at 16,000 g for 10 min at 4° C. All protein concentrations were determined using the bicinchoninic acid (BCA) protein assay (Pierce, Rockford, Ill.).
Immunoblotting. Samples were resolved by 4-20% precast linear gradient SDS-Tris polyacrylamide gel electrophoresis (Bio-rad Bio-Rad Laboratories, Hercules, Calif.) and then electrotransferred onto polyvinylidine fluoride membranes (Millipore, Bedford, Mass.) in Tris-glycine buffer containing 20% methanol. […] Antibody-reactive proteins were detected using a chemiluminescence substrate (SuperSignal; Pierce, Rockford, Ill.) according to the manufacturer's instructions. […]
Next, to further confirm that compound I-1 induces apoptosis in prostate cancer cells, we evaluated key apoptotic molecular markers. […]

C[C@@H]1CC[C@H]2C3C(O[C@]4([C@]5(O)CC6(C)C(=O)OC5C[C@@]6(C)O)CC[C@@]31O4)[C@H]1O[C@]13CC=CC(=O)[C@]23C (stereo partly drawn) [I-1]
effect on colony formation ([1]; 2.5 μM, 10 days): Inhibitory effects | concentration that blocked the capacity of single cancer cells to generate colonies ([1]; 10 days of treatment): ≥ 5 µM | activated caspase-3 ([2]; 10 μM, 48 h and 72 h): detected | cleavage of PARP-1 protein (additional band at 89 kDa) ([2]; 10 μM, 48 h and 72 h): detected | Caspase-3 activation ([2]; time periods shorter than 48 h): could not be detected | PARP-1 cleavage ([2]; time periods shorter than 48 h): could not be detected
